We go through 30 compounds from US8329706B2, “Oxazolidinone derivatives” (Actelion Pharmaceuticals Ltd., priority 2009, dated 2012).

The target of one experiment is T1, human orexin-1 receptor (Homo sapiens, UniProt O43613).
T1 construct: expressed in transfected cells; host or cells: CHO cells (G418 selection)
T1 sequence (O43613 1-425): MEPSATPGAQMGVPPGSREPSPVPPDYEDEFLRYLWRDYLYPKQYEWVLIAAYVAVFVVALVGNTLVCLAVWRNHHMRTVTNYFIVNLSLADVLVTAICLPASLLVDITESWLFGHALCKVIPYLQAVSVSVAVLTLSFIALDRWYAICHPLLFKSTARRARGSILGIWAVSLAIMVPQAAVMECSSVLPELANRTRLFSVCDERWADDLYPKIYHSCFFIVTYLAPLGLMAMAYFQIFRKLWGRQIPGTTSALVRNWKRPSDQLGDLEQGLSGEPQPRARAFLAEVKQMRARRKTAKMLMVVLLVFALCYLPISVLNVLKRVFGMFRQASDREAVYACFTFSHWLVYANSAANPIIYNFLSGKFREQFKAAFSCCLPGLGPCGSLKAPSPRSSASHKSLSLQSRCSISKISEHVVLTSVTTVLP
Kind of experiment: FLIPR intracellular calcium assay, orexin receptor antagonistic activity (OX1). It is filed as cell-based. The settings on record: CHO cells expressing human orexin-1 receptor; agonist 3 nM orexin-A; normalized to on-plate reference; * geomean n = 5, *2 geomean n = 2. The method, boiled down: (§1)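 CHO cells expressing human OX1 or OX2 receptor loaded with fluo-4 AM, then antagonist preincubated 10 min before 3 nM orexin-A. FLIPR peak calcium fluorescence compared with agonist-plus-vehicle response. IC50 normalized to an on-plate reference compound.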
(Calcium flux is commonly read through the fluorescence of an indicator in the cells.)

The target of another experiment is T2, human orexin-2 receptor (Homo sapiens, UniProt O43614).
T2 construct: expressed in transfected cells; host or cells: CHO cells (G418 selection)
T2 sequence (O43614 1-444): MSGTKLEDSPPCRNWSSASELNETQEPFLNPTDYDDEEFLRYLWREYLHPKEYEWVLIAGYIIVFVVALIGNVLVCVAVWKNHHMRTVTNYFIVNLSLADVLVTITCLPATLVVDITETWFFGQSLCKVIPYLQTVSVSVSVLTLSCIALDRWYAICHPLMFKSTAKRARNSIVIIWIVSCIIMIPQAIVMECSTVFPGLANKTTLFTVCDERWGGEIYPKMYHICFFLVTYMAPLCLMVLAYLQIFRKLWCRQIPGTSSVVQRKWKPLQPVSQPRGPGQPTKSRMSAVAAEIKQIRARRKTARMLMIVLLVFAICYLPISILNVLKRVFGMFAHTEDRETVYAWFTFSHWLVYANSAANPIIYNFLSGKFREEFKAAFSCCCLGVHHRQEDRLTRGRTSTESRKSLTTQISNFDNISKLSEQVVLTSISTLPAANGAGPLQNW
Kind of experiment: FLIPR intracellular calcium assay, orexin receptor antagonistic activity (OX2). It is filed as cell-based. The settings on record: CHO cells expressing human orexin-2 receptor; agonist 3 nM orexin-A; normalized to on-plate reference; * geomean n = 5, *2 geomean n = 2. The essentials:
as §1

On to `Cc1cccc(C)c1C1OC(C)(C)C(=O)N1Cc1ccc(OC(F)(F)F)c(Cl)c1` (stereo not drawn) [Example 81, 3-(3-Chloro-4-trifluoromethoxy-benzyl)-2-(2,6-dimethyl-phenyl)-5,5-dimethyl-oxazolidin-4-one], for which the values for the IC50 on human orexin-1 receptor and on human orexin-2 receptor were 920 nM and 88 nM, respectively.

Take `COc1cccc(OC)c1C1OC(C)(C)C(=O)N1Cc1ccc(OC(F)(F)F)c(Cl)c1` (stereo not drawn) [Example 58, 3-(3-Chloro-4-trifluoromethoxy-benzyl)-2-(2,6-dimethoxy-phenyl)-5,5-dimethyl-oxazolidin-4-one]: the results for the IC50 at human orexin-1 receptor and on human orexin-2 receptor were 25 nM and 133 nM, respectively.

`CCOc1ccccc1C1OCC(=O)N1Cc1ccc(F)c(C(F)(F)F)c1` (stereo not drawn) [Example 14, 2-(2-Ethoxy-phenyl)-3-(4-fluoro-3-trifluoromethyl-benzyl)-oxazolidin-4-one]: the IC50 is > 10000 nM at human orexin-1 receptor and 169 nM at human orexin-2 receptor.

Turning to `CCOc1ccccc1C1OCC(=O)N1Cc1c(Cl)cccc1Cl` (stereo not drawn) [Example 23, 3-(2,6-Dichloro-benzyl)-2-(2-ethoxy-phenyl)-oxazolidin-4-one], the IC50 turned out to be 1840 nM on human orexin-1 receptor and 787 nM at human orexin-2 receptor.

Take `CCOc1ccccc1C1OCC(=O)N1Cc1ccc(Cl)cc1` (stereo not drawn) [Example 21, 3-(4-Chloro-benzyl)-2-(2-ethoxy-phenyl)-oxazolidin-4-one]: the IC50 is > 10000 nM on human orexin-1 receptor and 696 nM on human orexin-2 receptor.

With `CCOc1ccccc1C1OCC(=O)N1Cc1ccc(F)c(F)c1` (stereo not drawn) [Example 26, 3-(3,4-Difluoro-benzyl)-2-(2-ethoxy-phenyl)-oxazolidin-4-one], the IC50 was > 10000 nM on human orexin-1 receptor and 652 nM on human orexin-2 receptor.

With `CCOc1ccccc1C1OCC(=O)N1Cc1cccc(OC(F)(F)F)c1` (stereo not drawn) [Example 7, 2-(2-Ethoxy-phenyl)-3-(3-trifluoromethoxy-benzyl)-oxazolidin-4-one], the IC50 on human orexin-1 receptor was 6810 nM; on human orexin-2 receptor, 74 nM.

As for `CCOc1ccccc1C1OCC(=O)N1Cc1ccc(Cl)c(Cl)c1` (stereo not drawn) [Example 29, 3-(3,4-Dichloro-benzyl)-2-(2-ethoxy-phenyl)-oxazolidin-4-one], the values for the IC50 at human orexin-1 receptor and on human orexin-2 receptor were > 10000 nM and 696 nM, respectively.

Consider `CCOc1ccccc1C1OCC(=O)N1Cc1ccc(Cl)cc1Cl` (stereo not drawn) [Example 30, 3-(2,4-Dichloro-benzyl)-2-(2-ethoxy-phenyl)-oxazolidin-4-one], for which the IC50 at human orexin-1 receptor turned out to be 3050 nM; on human orexin-2 receptor, 844 nM.

With `COc1cccc(OC)c1C1OC(C)(C)C(=O)N1Cc1ccc(OC(F)(F)F)c(F)c1` (stereo not drawn) [Example 67, 2-(2,6-Dimethoxy-phenyl)-3-(3-fluoro-4-trifluoromethoxy-benzyl)-5,5-dimethyl-oxazolidin-4-one], the IC50 at human orexin-1 receptor was found to be 25 nM; on human orexin-2 receptor it was 322 nM.

As for `COc1cccc(OC)c1C1OC(C)(C)C(=O)N1Cc1nc2ccccc2s1` (stereo not drawn) [Example 64, 3-Benzothiazol-2-ylmethyl-2-(2,6-dimethoxy-phenyl)-5,5-dimethyl-oxazolidin-4-one], the IC50 on human orexin-1 receptor worked out at 411 nM; on human orexin-2 receptor it was 222 nM.

Turning to `CCCOc1ccc(CN2C(=O)COC2c2c(OC)cccc2OC)cc1` (stereo not drawn) [Example 54, 2-(2,6-Dimethoxy-phenyl)-3-(4-propoxy-benzyl)-oxazolidin-4-one], the IC50 was 1710 nM at human orexin-1 receptor and 81 nM on human orexin-2 receptor.

As to `CCOc1ccccc1C1OCC(=O)N1Cc1cccc(C(F)(F)F)c1` (stereo not drawn) [Example 5, 2-(2-Ethoxy-phenyl)-3-(3-trifluoromethyl-benzyl)-oxazolidin-4-one], the IC50 at human orexin-1 receptor was > 10000 nM; on human orexin-2 receptor it was 462 nM.

As to `CCOc1ccccc1C1OCC(=O)N1Cc1cc(C)ccc1C(F)(F)F` (stereo not drawn) [Example 28, 2-(2-Ethoxy-phenyl)-3-(5-methyl-2-trifluoromethyl-benzyl)-oxazolidin-4-one], the IC50 on human orexin-1 receptor came out at 8020 nM; at human orexin-2 receptor, 661 nM.

`CCOc1ccccc1C1OCC(=O)N1Cc1ccc(Cl)c(C(F)(F)F)c1` (stereo not drawn) [Example 1, 3-(4-Chloro-3-trifluoromethyl-benzyl)-2-(2-ethoxy-phenyl)-oxazolidin-4-one]: the IC50 at human orexin-1 receptor turned out to be 6490 nM; on human orexin-2 receptor it was 263 nM.

As to `COCCOc1cccc(OC)c1C1OC(C)(C)C(=O)N1Cc1ccc(Oc2ccccc2)cc1` (stereo not drawn) [Example 98, 2-[2-Methoxy-6-(2-methoxy-ethoxy)-phenyl]-5,5-dimethyl-3-(4-phenoxy-benzyl)-oxazolidin-4-one], the IC50 at human orexin-1 receptor came out at 345 nM; on human orexin-2 receptor, 366 nM.

Take `CCOc1ccccc1C1OCC(=O)N1Cc1ccc(OC(F)(F)F)c(Cl)c1` (stereo not drawn) [Example 18, 3-(3-Chloro-4-trifluoromethoxy-benzyl)-2-(2-ethoxy-phenyl)-oxazolidin-4-one]: the IC50 at human orexin-1 receptor was found to be 8790 nM; at human orexin-2 receptor, 26 nM.

In the case of `CCOc1ccccc1C1OCC(=O)N1Cc1ccc(OC)cc1` (stereo not drawn) [Example 27, 2-(2-Ethoxy-phenyl)-3-(4-methoxy-benzyl)-oxazolidin-4-one], the IC50 was > 10000 nM on human orexin-1 receptor and 353 nM at human orexin-2 receptor.

Consider `CCOc1ccccc1C1OCC(=O)N1Cc1cccc(C(F)(F)F)c1C` (stereo not drawn) [Example 11, 2-(2-Ethoxy-phenyl)-3-(2-methyl-3-trifluoromethyl-benzyl)-oxazolidin-4-one], for which the IC50 on human orexin-1 receptor was found to be 5410 nM; at human orexin-2 receptor it was 385 nM.

For `CCOc1ccccc1C1OCC(=O)N1Cc1ccccc1F` (stereo not drawn) [Example 20, 2-(2-Ethoxy-phenyl)-3-(2-fluoro-benzyl)-oxazolidin-4-one], the IC50 was > 10000 nM at human orexin-1 receptor and 262 nM on human orexin-2 receptor.

Regarding `COc1cccc(Cl)c1C1OC(C)(C)C(=O)N1Cc1ccc(Oc2ccccc2)cc1` (stereo not drawn) [Example 85, 2-(2-Chloro-6-methoxy-phenyl)-5,5-dimethyl-3-(4-phenoxy-benzyl)-oxazolidin-4-one], the IC50 came to 204 nM at human orexin-1 receptor and 37 nM on human orexin-2 receptor.

`COc1cccc(OC)c1C1OCC(=O)N1Cc1ccc(C(F)(F)F)cc1` (stereo not drawn) [Example 32, 2-(2,6-Dimethoxy-phenyl)-3-(4-trifluoromethyl-benzyl)-oxazolidin-4-one]: the figures for the IC50 at human orexin-1 receptor and at human orexin-2 receptor were > 10000 nM and 413 nM, respectively.

Take `COc1cccc(OC)c1C1OCC(=O)N1Cc1ccc(OC(F)(F)F)cc1` (stereo not drawn) [Example 34, 2-(2,6-Dimethoxy-phenyl)-3-(4-trifluoromethoxy-benzyl)-oxazolidin-4-one]: the IC50 stood at 6470 nM on human orexin-1 receptor and 298 nM on human orexin-2 receptor.

In the case of `CCOc1ccccc1C1OCC(=O)N1Cc1ccc(F)c(Cl)c1` (stereo not drawn) [Example 9, 3-(3-Chloro-4-fluoro-benzyl)-2-(2-ethoxy-phenyl)-oxazolidin-4-one], the IC50 at human orexin-1 receptor was 8740 nM; at human orexin-2 receptor, 79 nM.

Take `COc1cccc(OC)c1C1OC(C)(C)C(=O)N1Cc1ccc(SC(F)(F)F)cc1` (stereo not drawn) [Example 88, 2-(2,6-Dimethoxy-phenyl)-5,5-dimethyl-3-(4-trifluoromethylsulfanyl-benzyl)-oxazolidin-4-one]: the IC50 worked out at 120 nM at human orexin-1 receptor and 298 nM on human orexin-2 receptor.

For the compound `CCOc1ccccc1C1OCC(=O)N1Cc1cc(C(F)(F)F)cc(Cl)c1F` (stereo not drawn) [Example 10, 3-(3-Chloro-2-fluoro-5-trifluoromethyl-benzyl)-2-(2-ethoxy-phenyl)-oxazolidin-4-one], the figures for the IC50 at human orexin-1 receptor and at human orexin-2 receptor were 8410 nM and 693 nM, respectively.

For `CCOc1ccc(CN2C(=O)[C@@H](C)O[C@@H]2c2c(OC)cccc2OC)cc1` [Example 79, 2-(2,6-Dimethoxy-phenyl)-3-(4-ethoxy-benzyl)-(r)-5-methyl-oxazolidin-4-one], the IC50 on human orexin-1 receptor stood at 830 nM; on human orexin-2 receptor, 864 nM.

For the compound `CCOc1ccccc1C1OCC(=O)N1Cc1ccc(OC(F)(F)F)cc1` (stereo not drawn) [Example 6, 2-(2-Ethoxy-phenyl)-3-(4-trifluoromethoxy-benzyl)-oxazolidin-4-one], the half-inhibitory concentration (IC50) on human orexin-1 receptor was > 10000 nM; on human orexin-2 receptor, 55 nM.

`COc1cccc(OC)c1C1O[C@@H](C)C(=O)N1Cc1ccc(Oc2ccccc2)cc1` (stereo partly drawn) [Example 59, 2-(2,6-Dimethoxy-phenyl)-(S)-5-methyl-3-(4-phenoxy-benzyl)-oxazolidin-4-one]: the IC50 on human orexin-1 receptor is 2130 nM; at human orexin-2 receptor it was 150 nM.

As for `COc1cccc(OC)c1C1OC(C)(C)C(=O)N1Cc1ccc(OC(C)C)cc1` (stereo not drawn) [Example 76, 2-(2,6-Dimethoxy-phenyl)-3-(4-isopropoxy-benzyl)-5,5-dimethyl-oxazolidin-4-one], the IC50 stood at 114 nM on human orexin-1 receptor and 193 nM on human orexin-2 receptor.

The IC50 is the midpoint of a concentration-inhibition curve.
